The values below come from publication PMC7997032, “Organic synthesis and anti-influenza A virus activity of cyclobakuchiols A, B, C, and D” (PLoS ONE, 2021).

Values joined by “and” are separate entries in the source; they are usually repeats but may differ in a detail not shown here. Equal entries are not always repeated.

Test [1] has as its system A/PR/8/34 virus. Nature of the test: Influenza A viral growth assay (viral titer of culture media). Type of test: cell-based, influenza A H1N1 virus. As to conditions: A/PR/8/34 (PR8), 12.5uM; for viral titer of culture media, ave: average of #1-3 exp (n=9); for viral titer of culture media, individual replicate: replicates of #1-3 exp. Set-up: viral titer of culture media, individual replicate / viral titer of culture media, ave: unit not given here.

Test [2] concerns A/WSN/33 virus. The description is as above. Type of test: cell-based, influenza A H1N1 virus. Particulars: A/WSN/33 (WSN), 12.5uM; for viral titer of culture media, ave: average of #1-3 exp (n=9); for viral titer of culture media, individual replicate: replicates of #1-3 exp.

For the compound `C=C[C@]1(C)CC[C@H](C(C)(C)O)[C@@H](c2ccc(O)cc2)C1` [(1R,3R,4R)-cyclobakuchiol C], the “viral titer of culture media, ave” value worked out at 33333.3 in test [1] (12h); 52222.2 in test [1] (24h); 37777.8 in test [1] (48h); 43333.3 in test [1] (72h); 8288.89 in test [2] (12h); 21277778 in test [2] (24h). Further, the entries for the “viral titer of culture media, ave” value in test [2] (48h) and in test [2] (72h) were 246888889 and 155211111, respectively. Besides, the “viral titer of culture media, individual replicate” value was 40000 and 60000 (2×) and 30000 (2×) and 10000 (3×) and 50000 in test [1] (12h); 190000 and 20000 and 90000 and 10000 (3×) and 70000 and 40000 and 30000 in test [1] (24h); 50000 (2×) and 20000 and 80000 and 10000 (3×) and 40000 and 70000 in test [1] (48h); 40000 and 20000 (2×) and 90000 and 10000 (2×) and 50000 and 70000 and 80000 in test [1] (72h); 3000 and 1000 and 600 and 10000 (5×) and 20000 in test [2] (12h); 1600000 and 1000000 and 900000 and 30000000 (2×) and 21000000 and 9000000 and 70000000 and 28000000 in test [2] (24h). Moreover, the “viral titer of culture media, individual replicate” value in test [2] (48h) is 100000000 and 150000000 and 62000000 and 140000000 and 350000000 (2×) and 410000000 and 280000000 and 380000000; in test [2] (72h) it was 10000000 and 20000000 and 6900000 and 130000000 and 170000000 and 230000000 (2×) and 300000000 (2×).
